Data published in ChEMBL document CHEMBL5523718, “Design, synthesis, molecular modeling, in vitro and in vivo biological evaluation of potent anthranilamide derivatives as dual P-glycoprotein and CYP3A4 inhibitors” (Eur J Med Chem, 2024).

Key:
[1] = Metabolic stability in monkey liver microsome assessed as intrinsic clearance; assay type: ADME, Macaca mulatta; conditions: rhesus monkey, microsomes
[2] = target: T1, Broad substrate specificity ATP-binding cassette transporter ABCG2 (Homo sapiens, UniProt Q9UNQ0); experiment: Inhibition of BCRP (unknown origin) ATPase activity
T1 sequence (Q9UNQ0 whole entry): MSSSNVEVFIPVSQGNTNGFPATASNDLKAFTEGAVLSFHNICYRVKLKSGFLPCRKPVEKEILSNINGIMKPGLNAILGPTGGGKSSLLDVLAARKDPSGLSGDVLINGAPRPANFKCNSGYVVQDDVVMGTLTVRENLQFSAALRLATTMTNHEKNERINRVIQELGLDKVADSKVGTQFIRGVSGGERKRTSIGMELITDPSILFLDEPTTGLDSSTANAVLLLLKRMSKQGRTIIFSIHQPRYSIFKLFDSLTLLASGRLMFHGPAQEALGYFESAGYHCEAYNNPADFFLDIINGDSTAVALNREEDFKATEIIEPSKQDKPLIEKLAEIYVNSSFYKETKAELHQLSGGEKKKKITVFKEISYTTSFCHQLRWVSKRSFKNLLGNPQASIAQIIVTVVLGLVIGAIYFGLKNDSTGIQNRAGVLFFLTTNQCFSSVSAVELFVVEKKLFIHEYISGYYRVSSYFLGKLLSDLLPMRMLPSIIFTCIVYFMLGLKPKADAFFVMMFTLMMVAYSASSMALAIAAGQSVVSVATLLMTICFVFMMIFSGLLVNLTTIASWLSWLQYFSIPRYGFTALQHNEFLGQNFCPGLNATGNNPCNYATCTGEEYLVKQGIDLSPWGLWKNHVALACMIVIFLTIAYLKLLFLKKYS

[3] = target: ATP-dependent translocase ABCB1 (Homo sapiens, UniProt P08183); experiment: Inhibition of P-gp (unknown origin) ATPase activity
Sequence of ATP-dependent translocase ABCB1 (P08183 whole entry): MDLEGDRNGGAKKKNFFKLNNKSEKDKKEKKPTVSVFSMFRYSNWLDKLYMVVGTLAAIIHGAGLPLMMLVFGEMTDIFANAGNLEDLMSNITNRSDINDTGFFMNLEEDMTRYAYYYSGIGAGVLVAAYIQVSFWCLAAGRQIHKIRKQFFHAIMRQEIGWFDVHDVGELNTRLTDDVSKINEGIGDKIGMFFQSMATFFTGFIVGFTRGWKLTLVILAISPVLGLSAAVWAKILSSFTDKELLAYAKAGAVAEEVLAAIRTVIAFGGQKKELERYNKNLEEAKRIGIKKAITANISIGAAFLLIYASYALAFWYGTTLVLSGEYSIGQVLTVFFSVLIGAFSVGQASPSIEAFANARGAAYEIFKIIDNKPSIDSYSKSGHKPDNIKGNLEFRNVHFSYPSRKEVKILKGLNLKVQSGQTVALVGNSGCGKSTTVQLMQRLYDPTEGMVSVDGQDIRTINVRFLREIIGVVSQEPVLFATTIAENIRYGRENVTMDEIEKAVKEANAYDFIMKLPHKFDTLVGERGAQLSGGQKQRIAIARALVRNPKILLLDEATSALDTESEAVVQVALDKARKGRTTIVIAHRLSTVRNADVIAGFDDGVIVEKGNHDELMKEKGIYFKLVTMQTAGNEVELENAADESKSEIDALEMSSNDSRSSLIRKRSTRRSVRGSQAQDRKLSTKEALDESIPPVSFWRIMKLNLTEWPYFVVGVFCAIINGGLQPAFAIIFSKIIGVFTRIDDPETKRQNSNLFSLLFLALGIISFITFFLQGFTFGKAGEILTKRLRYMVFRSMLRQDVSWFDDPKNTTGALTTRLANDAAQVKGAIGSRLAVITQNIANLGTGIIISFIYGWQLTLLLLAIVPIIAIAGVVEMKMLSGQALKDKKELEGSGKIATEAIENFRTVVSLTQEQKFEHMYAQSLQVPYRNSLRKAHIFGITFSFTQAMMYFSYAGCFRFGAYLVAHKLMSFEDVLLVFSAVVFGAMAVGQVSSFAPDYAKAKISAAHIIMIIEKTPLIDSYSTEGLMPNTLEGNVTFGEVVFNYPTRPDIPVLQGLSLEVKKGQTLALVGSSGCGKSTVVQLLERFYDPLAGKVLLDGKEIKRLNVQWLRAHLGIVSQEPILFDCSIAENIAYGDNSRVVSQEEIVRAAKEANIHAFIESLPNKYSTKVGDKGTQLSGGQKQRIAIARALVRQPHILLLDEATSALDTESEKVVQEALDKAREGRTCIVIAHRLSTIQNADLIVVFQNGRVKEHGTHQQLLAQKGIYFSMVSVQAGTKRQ

P-gp (ABCB1) [4] = target: T2, P-gp (ABCB1) (Homo sapiens, UniProt P08183); experiment: Inhibition of P-gp in human Caco-2 cells at 0.1 uM in presence of paclitaxel relative to control; assay type: cell-based; conditions: Caco-2, probe paclitaxel
T2 sequence (P08183 whole entry): as above

[5] = Apparent permeability of compound across apical to basolateral side in human Caco-2 cells; assay type: ADME, cell-based
[6] = Metabolic stability in rat liver microsome assessed as intrinsic clearance; assay type: ADME; conditions: microsomes
Cytochrome P450 1A2 = target: T3, Cytochrome P450 1A2 (Homo sapiens, UniProt P05177); experiment: Inhibition of CYP1A2 (unknown origin) using Phenacetin as substrate; assay type: ADME
T3 sequence (P05177 whole entry): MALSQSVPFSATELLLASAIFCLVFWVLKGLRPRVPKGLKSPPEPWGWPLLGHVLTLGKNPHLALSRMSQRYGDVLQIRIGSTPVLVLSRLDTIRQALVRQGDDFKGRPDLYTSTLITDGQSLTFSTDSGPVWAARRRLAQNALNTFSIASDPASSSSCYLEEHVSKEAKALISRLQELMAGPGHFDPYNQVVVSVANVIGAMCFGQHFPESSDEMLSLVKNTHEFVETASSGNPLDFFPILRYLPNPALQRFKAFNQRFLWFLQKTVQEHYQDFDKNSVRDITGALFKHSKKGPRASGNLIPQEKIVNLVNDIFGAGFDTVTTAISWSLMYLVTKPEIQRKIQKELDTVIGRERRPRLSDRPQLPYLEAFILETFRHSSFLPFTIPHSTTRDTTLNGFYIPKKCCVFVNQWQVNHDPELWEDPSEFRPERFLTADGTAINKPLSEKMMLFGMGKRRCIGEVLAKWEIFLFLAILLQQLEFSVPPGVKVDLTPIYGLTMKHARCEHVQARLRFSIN

[7] = Inhibition of CYP3A4 in monkey liver using luciferin-IPA as substrate microsome preincubated with compound for 10 mins followed by NADPH addition and measured after 5 mins; assay type: ADME, microsomes, Macaca mulatta
P-gp (ABCB1) [8] = target: T2, P-gp (ABCB1); experiment: Inhibition of P-gp in human Caco-2 cells at 0.01 uM in presence of paclitaxel relative to control; assay type: cell-based; conditions: Caco-2, probe paclitaxel
Cytochrome P450 2C19 = Cytochrome P450 2C19 (Homo sapiens, UniProt P33261); experiment: Inhibition of CYP2C19 (unknown origin) using S-mephenytoin as substrate; assay type: ADME
Sequence of Cytochrome P450 2C19 (P33261 whole entry): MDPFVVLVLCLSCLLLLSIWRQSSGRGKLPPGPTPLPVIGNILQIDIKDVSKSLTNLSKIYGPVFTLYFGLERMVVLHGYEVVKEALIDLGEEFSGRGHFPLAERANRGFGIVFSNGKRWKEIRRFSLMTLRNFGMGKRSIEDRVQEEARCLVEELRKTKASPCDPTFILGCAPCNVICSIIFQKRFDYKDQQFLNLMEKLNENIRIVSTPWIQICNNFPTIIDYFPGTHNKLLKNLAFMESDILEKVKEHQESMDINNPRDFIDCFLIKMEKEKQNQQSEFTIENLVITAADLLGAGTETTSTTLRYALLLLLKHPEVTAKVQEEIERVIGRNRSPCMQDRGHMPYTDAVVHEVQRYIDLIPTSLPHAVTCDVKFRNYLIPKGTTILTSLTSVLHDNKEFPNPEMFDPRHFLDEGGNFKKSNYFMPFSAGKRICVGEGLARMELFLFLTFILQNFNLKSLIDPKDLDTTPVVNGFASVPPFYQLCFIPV

[9] = Metabolic stability in human liver microsome assessed as intrinsic clearance; assay type: ADME; conditions: microsomes

- CLH [1]: 280 µL/min/mg
- IC50 [2]: > 1250 nM
- IC50 [3]: 21 nM
- inhibition at 0.1 µM (P-gp (ABCB1) [4]): 89%
- Papp A→B [5]: < 0.06 ×10⁻⁶ cm/s
- CLH [6]: 95 µL/min/mg
- IC50 (Cytochrome P450 1A2): > 100000 nM
- IC50 [7]: 140 nM
- inhibition at 0.01 µM (P-gp (ABCB1) [8]): 54%
- IC50 (Cytochrome P450 2C19): 39000 nM
- CLH [9]: 300 µL/min/mg
SMILES: COc1cc(NC(=O)c2cc(=O)c3ccccc3o2)c(C(=O)Nc2ccc(C3CCN(Cc4cccc(-n5ccnc5)c4)CC3)cc2)cc1OC
